Measurements as given in patent US20230312564A1, “AROMATIC RING-LACTAM COMPOUND, PREPARATION METHOD THEREFOR AND USE THEREOF” (SHANGHAI RINGENE BIOPHARMA CO., LTD., priority 2020, published 2023).
Where two headings read alike, the source gives them in different places.

Tests used:
[1] = system: Colo-205 transplanted tumor; test: Growth inhibition of nude mice Colo-205 transplanted tumor; assay type: in vivo
Protocol: The tumor tissue in the vigorous growth phase was cut into about 1.5 mm^3 and inoculated subcutaneously in the right axilla of nude mice under sterile conditions. The diameter of subcutaneous transplanted tumors in nude mice was measured with a vernier caliper, and the mice were randomly divided into groups when the average tumor volume reached about 130 mm^3. The embodiment compounds (injection water containing 1% Tween 80 were configured to a desired concentration for later use) were orally administered daily at a given dose for three consecutive weeks, and the solvent control group was administered with the same amount of solvent. During the whole test, the diameter of transplanted tumor was measured twice a week, and the mice were weighed at the same time. The calculation formula of tumor volume (TV) is expressed as TV=1/2×a×b^2, wherein a and b represent length and width, respectively. The relative tumor volume (RTV) was calculated according to the measurement results, and the calculation formula is RTV=Vt/V0, wherein V0 is the tumor volume measured when administered in separate cages (i.e., d0), and Vt is the tumor volume at the time of each measurement.

ERK1/2 kinase = biological target: T1, ERK1/2 kinase; test: ERK1/2 kinase (Carna) inhibitory activity, Caliper mobility shift; assay type: biochemical; conditions: for IC50: read-out: ERK½ IC50
T1 construct: fused on or other part: Carna's ERK products carry a GST tag by vendor knowledge
How it was run: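 Compounds tested from 10 μM top concentration, 3-fold dilutions to 10 points, in duplicate, in 1× kinase buffer; Caliper mobility-shift readout.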

p-ERK in MiaPaca-2 = test: p-ERK feedback upregulation in MiaPaca-2 tumor cells; assay type: cell-based; conditions: acting on MiaPaca-2
Colo-205 cells = test: Colo-205 tumor cell proliferation, CCK-8, 72 hours; assay type: cell-based; conditions: for IC50: 72 hours, CCK-8, read-out: Colo-205 IC50; for cell proliferation inhibitory activity (in words): Colo-205
[2] = Liver microsomal metabolic stability, rat; assay type: in vitro ADME; conditions: 0.5 mg/mL microsomes, 1 μM compound, NADPH
Protocol: (§1) The reaction was stopped with tinidazole-containing acetonitrile at 0 min, 5 min, 10 min and 30 min, respectively. After vortexing for 10 min and centrifuging at 15,000 rmp for 10 min, 50 μL of the supernatant was injected into a 96-well plate. The metabolic stability of the compound was calculated by determining the relative reduction of the drug, calculated as half-life T1/2.

[3] = Liver microsomal metabolic stability, mouse; assay type: in vitro ADME; conditions: 0.5 mg/mL microsomes, 1 μM compound, NADPH
Protocol: as §1

[4] = In-vivo pharmacokinetic parameters in mice; parameters: species or system Balb-c mice
How it was run: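 Male SD rats or Balb-c mice were dosed intravenously at 1 mg/kg or orally at 5 mg/kg. Jugular-vein plasma was sampled up to 24 h and analysed by LC-MS/MS. Non-compartmental analysis gave AUC, MRT, Cmax, Tmax, T1/2, Vd and oral bioavailability (F).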

CYP2D6 = biological target: T2, CYP2D6 (Homo sapiens, UniProt P10635); test: Direct inhibition test (DI test) in human liver microsomes, CYP2D6; assay type: in vitro ADME
T2 construct: A system containing 100 μL of human liver microsomes; from tissue; host or cells: human liver microsomes
T2 sequence (P10635 whole entry): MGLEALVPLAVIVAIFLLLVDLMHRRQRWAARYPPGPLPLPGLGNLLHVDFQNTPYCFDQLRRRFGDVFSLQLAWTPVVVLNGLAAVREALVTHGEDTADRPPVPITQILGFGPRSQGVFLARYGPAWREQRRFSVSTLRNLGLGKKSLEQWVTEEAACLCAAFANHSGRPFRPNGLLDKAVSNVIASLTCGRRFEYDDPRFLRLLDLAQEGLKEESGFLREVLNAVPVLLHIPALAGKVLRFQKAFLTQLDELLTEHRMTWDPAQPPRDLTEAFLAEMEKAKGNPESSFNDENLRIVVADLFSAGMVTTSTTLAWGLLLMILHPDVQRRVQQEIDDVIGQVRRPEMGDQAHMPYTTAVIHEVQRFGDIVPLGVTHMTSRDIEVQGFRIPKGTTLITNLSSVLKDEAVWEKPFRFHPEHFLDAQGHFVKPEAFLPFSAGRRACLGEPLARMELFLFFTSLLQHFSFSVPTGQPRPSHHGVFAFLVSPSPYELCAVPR
Protocol: (§2) (2) Direct inhibition test (DI test): A system containing 100 μL of human liver microsomes (final concentration of 0.2 mg/mL) was subjected to a direct inhibition incubation, and the system contained NADPH (final concentration of 1 mM), 10 μM compound, positive inhibitor cocktail (10 μM ketoconazole, 10 μM quinidine, 100 μM sulfaphenazole, 10 μM α-naphthoflavone, 1,000 μM tranylcypromine), negative control (BPS of 0.1% DMSO), and mixed probe substrates (10 μM midazolam, 100 μM testosterone, 10 μM dextromethorphan, […], 100 μM phenacetin, 100 μM mephenytoin). After 20 minutes of incubation, the reaction was stopped. The relative activity of the enzyme was calculated by measuring the relative production of metabolites.

[5] = Liver microsomal metabolic stability, human; assay type: in vitro ADME; conditions: 0.5 mg/mL microsomes, 1 μM compound, NADPH
Protocol: as §1

CYP2C8 = CYP2C8 (Homo sapiens, UniProt P11712); test: Direct inhibition test (DI test) in human liver microsomes, CYP2C8; assay type: in vitro ADME
Chain of CYP2C8 (P11712 whole entry): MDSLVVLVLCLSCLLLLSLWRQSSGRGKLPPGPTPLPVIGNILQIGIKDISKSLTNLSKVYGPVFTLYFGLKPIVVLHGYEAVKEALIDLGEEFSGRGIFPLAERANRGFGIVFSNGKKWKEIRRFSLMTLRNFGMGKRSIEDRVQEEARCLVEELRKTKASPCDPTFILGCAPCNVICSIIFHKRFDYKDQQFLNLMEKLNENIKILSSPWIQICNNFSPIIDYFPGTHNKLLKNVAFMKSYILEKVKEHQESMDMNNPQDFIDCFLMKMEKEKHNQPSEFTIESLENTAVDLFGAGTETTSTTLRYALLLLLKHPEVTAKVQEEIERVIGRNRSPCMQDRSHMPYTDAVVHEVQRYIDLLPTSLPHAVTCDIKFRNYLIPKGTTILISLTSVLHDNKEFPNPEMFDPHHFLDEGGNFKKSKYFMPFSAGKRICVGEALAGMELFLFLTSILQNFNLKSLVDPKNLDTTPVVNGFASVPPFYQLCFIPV

[6] = Liver microsomal metabolic stability, dog; assay type: in vitro ADME; conditions: 0.5 mg/mL microsomes, 1 μM compound, NADPH
Protocol: as §1

CYP1A2 = biological target: T3, CYP1A2 (Homo sapiens, UniProt P05177); test: Direct inhibition test (DI test) in human liver microsomes, CYP1A2
T3 sequence (P05177 1-516): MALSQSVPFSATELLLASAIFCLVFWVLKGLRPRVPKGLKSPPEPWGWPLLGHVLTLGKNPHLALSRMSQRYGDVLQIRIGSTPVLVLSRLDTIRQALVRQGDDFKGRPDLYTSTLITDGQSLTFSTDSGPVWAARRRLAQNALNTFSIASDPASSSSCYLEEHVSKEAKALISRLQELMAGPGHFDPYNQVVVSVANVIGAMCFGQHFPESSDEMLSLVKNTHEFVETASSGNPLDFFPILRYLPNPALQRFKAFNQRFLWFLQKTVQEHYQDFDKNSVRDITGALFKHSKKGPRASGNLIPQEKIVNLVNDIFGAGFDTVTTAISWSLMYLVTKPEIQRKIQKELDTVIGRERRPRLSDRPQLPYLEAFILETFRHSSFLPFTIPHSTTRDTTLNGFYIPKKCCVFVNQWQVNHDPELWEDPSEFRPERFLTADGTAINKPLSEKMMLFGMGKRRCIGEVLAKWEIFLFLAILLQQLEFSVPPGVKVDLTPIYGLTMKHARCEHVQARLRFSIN
Protocol: as §2

CYP3A4 = biological target: T4, CYP3A4 (Homo sapiens, UniProt P08684); test: Direct inhibition test (DI test) in human liver microsomes, CYP3A4; assay type: in vitro ADME
T4 construct: A system containing 100 μL of human liver microsomes; from tissue; host or cells: human liver microsomes
T4 sequence (P08684 whole entry): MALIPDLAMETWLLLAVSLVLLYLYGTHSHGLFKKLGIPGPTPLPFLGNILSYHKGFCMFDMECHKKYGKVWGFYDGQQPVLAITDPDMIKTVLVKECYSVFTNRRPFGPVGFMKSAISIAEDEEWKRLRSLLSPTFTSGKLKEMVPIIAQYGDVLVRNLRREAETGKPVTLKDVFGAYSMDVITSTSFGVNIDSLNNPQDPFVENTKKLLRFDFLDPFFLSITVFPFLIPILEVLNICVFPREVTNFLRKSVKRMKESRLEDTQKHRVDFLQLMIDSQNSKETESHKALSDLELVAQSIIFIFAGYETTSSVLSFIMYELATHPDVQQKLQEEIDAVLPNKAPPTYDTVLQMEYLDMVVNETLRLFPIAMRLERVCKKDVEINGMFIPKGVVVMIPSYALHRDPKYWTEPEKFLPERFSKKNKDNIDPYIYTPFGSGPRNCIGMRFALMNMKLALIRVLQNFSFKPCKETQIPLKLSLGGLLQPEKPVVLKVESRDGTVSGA
Protocol: as §2

CYP2C19 = biological target: T5, CYP2C19 (Homo sapiens, UniProt P33261); test: Direct inhibition test (DI test) in human liver microsomes, CYP2C19; assay type: in vitro ADME
T5 construct: A system containing 100 μL of human liver microsomes; from tissue; host or cells: human liver microsomes
T5 sequence (P33261 whole entry): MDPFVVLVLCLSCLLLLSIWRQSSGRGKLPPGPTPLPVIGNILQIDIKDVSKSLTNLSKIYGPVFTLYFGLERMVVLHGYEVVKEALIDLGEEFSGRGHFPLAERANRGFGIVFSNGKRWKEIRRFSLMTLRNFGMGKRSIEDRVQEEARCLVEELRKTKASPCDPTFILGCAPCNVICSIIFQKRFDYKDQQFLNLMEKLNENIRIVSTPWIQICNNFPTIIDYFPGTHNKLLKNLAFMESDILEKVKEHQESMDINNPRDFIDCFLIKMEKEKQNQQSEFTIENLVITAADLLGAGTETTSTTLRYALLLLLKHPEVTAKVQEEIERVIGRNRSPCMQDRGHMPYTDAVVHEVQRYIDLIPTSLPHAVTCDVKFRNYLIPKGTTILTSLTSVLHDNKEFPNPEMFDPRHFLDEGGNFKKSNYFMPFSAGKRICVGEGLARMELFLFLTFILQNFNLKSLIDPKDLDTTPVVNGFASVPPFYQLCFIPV
Protocol: as §2

[7] = Liver microsomal stability, comparisons in words across species; assay type: in vitro ADME; conditions: for stability in liver microsomes (in words): mouse, rat and human, compared with comparative compound 5
Protocol: as §1

[8] = Homo sapiens, COLO 205, numeric values
[9] = liver microsomes, read-out: Liver microsomal stability T1/2
[10] = male, Balb-c, mouse, plasma, IV, 1 mg/kg
[11] = male, Balb-c, mouse, plasma, PO, 5 mg/kg

Row | SMILES | IC50 (Colo-205 cells; [8]) [nM] | IC50 (ERK1/2 kinase; numeric values) [nM] | IC50 (CYP2D6) [µM] | IC50 at 20 min (CYP2C8) [µM] | IC50 (CYP1A2) [µM] | IC50 (CYP3A4) [µM] | IC50 (CYP2C19) [µM] | enzyme inhibitory activity (in words) (ERK1/2 kinase) | cell proliferation inhibitory activity (in words) (Colo-205 cells) | also measured
1 | CC(C)Nc1cc(-c2c[nH]c(C(=O)N[C@H](CO)c3cccc(Cl)c3)c2)c(Cl)cn1 [BVD523, reference compound] | 280 |  |  |  |  |  |  |  |  | T/C ([1]; 50 mg/kg, qdx21, po): 48.5%; Initial weight (D0) ([1]; 50 mg/kg, qdx21, po, D0): 19.8 g; Terminal weight (D21) ([1]; 50 mg/kg, qdx21, po, D21): 19.0 g; Initial tumor volume ([1]; 50 mg/kg, qdx21, po, initial): 97 ± 14 mm^3; Terminal tumor volume ([1]; 50 mg/kg, qdx21, po, terminal): 471 ± 198 mm^3; IC50 (ERK1/2 kinase; class symbols): < 10 nM; p-ERK upregulation (in words) (p-ERK in MiaPaca-2): will cause p-ERK feedback upregulation
2 | COc1cc(F)cc([C@@H](CO)NC(=O)[C@@H](C)N2Cc3ccc(-c4nc(NC5CCOCC5)ncc4Cl)nc3C2=O)c1 [Embodiment 18] | 33.3 | 0.8 | > 10 | > 10 | > 10 | > 10 | > 10 | extremely strong enzyme inhibitory activity | strong cell proliferation inhibitory activity | half-life at 1 μM [2, 9]: 16 min; half-life at 1 μM [3, 9]: 32 min; F ([4]; PO 5 mg/kg vs IV 1 mg/kg): 25%; AUC(0-inf) [4, 10]: 0.202 µM·h; AUC(0-t) [4, 10]: 0.198 µM·h; MRT inf [4, 10]: 30 min; clearance [4, 10]: 144 mL/min/kg; half-life [4, 10]: 72 min; Vd ([4]; male, Balb-c, mouse, plasma, IV, 1 mg/kg, read-out: Vss): 3.9 L/kg; AUC(0-inf) [4, 11]: 0.257 µM·h; AUC(0-t) [4, 11]: 0.253 µM·h; Cmax [4, 11]: 289 nM; Tmax [4, 11]: 24 min; half-life [4, 11]: 42 min; half-life at 1 μM [5, 9]: 12 min; half-life at 1 μM [6, 9]: 32 min; stability in liver microsomes (in words) [7]: significantly improved
3 | Cc1cccc([C@@H](CO)NC(=O)[C@@H](C)N2Cc3ccc(-c4nc(NC5CCOCC5)ncc4F)c(F)c3C2=O)c1 [Embodiment 31] |  | 0.9 |  |  |  |  |  | extremely strong enzyme inhibitory activity | strong cell proliferation inhibitory activity | effect on the tumor weight (in words) ([1]; dose of 50 mg/kg or 25 mg/kg): no significant effect on the tumor weight; tumor growth of Colo-205 transplanted tumor nude mice (in words) ([1]; dose of 50 mg/kg or 25 mg/kg): significantly inhibited the tumor growth; Liver microsomal stability T1/2 [2]: 17 min; Liver microsomal stability T1/2 [3]: 17 min; Liver microsomal stability T1/2 [5]: 13 min; Liver microsomal stability T1/2 [6]: 122 min; IC50 (CYP1A2; microsomes): > 10 µM; IC50 (Colo-205 cells; numeric values): 17.4 nM; stability of different kinds of liver microsomes (in words) ([7]; different species, versus the comparative compounds): significant advantages
4 | COc1cc(F)cc([C@@H](CO)NC(=O)[C@@H](C)N2Cc3ccc(-c4nc(NC5CCOCC5)ncc4Cl)c(F)c3C2=O)c1 [Embodiment 33] |  | 0.9 |  |  |  |  |  | extremely strong enzyme inhibitory activity | strong cell proliferation inhibitory activity | Liver microsomal stability T1/2 [2]: 17 min; Liver microsomal stability T1/2 [3]: 10 min; Liver microsomal stability T1/2 [5]: 18 min; Liver microsomal stability T1/2 [6]: 51 min; IC50 (CYP1A2; microsomes): > 10 µM; IC50 (Colo-205 cells; numeric values): 14.1 nM; stability in liver microsomes (in words) [7]: significantly improved
5 | COc1cc(F)cc([C@@H](CO)NC(=O)[C@@H](C)N2Cc3ccc(-c4nc(NC5CCOC5)ncc4F)c(F)c3C2=O)c1 (stereo partly drawn) [Embodiment 42] |  | < 1 | > 10 | > 10 | > 10 | > 10 | > 10 |  | strong cell proliferation inhibitory activity | IC50 (Colo-205 cells; Homo sapiens, COLO 205, class symbols): < 100 nM
6 | COc1cc(F)cc([C@@H](CO)NC(=O)[C@@H](C)N2Cc3ccc(-c4nc(NC5CCC(F)(F)CC5)ncc4F)c(F)c3C2=O)c1 [Embodiment 44] | 18.3 |  | > 10 | > 10 | > 10 | > 10 | > 10 |  | strong cell proliferation inhibitory activity | IC50 (ERK1/2 kinase; class symbols): < 10 nM

Continued, in another order:

Row | IC50 (Colo-205 cells; [8]) [nM] | IC50 (ERK1/2 kinase; numeric values) [nM] | IC50 (CYP2D6) [µM] | IC50 at 20 min (CYP2C8) [µM] | IC50 (CYP1A2) [µM] | IC50 (CYP3A4) [µM] | IC50 (CYP2C19) [µM] | SMILES | enzyme inhibitory activity (in words) (ERK1/2 kinase) | cell proliferation inhibitory activity (in words) (Colo-205 cells) | also measured
7 | 16.2 | < 1 | > 10 | > 10 | > 10 | > 10 | > 10 | C[C@H](C(=O)N[C@H](CO)c1cccc(F)c1)N1Cc2ccc(-c3nc(NC4CCOCC4)ncc3F)c(F)c2C1=O [Embodiment 46] |  |  | 
8 | 19.2 | < 1 | > 10 | > 10 | > 10 | > 10 | > 10 | C[C@H](C(=O)N[C@H](CO)c1ccc(F)c(Cl)c1)N1Cc2ccc(-c3nc(NC4CCOCC4)ncc3F)c(F)c2C1=O [Embodiment 48] |  | strong cell proliferation inhibitory activity | 
9 | 17.4 | < 1 | > 10 | > 10 | > 10 | > 10 | > 10 | [2H]C([2H])([2H])Oc1cc(F)cc([C@@H](CO)NC(=O)[C@@H](C)N2Cc3ccc(-c4nc(NC5CCOCC5)ncc4F)c(F)c3C2=O)c1 [Embodiment 49] | extremely strong enzyme inhibitory activity | strong cell proliferation inhibitory activity | 
